These results are taken from publication PMC12467535 (Biomedicines, 2025).

Like-named read-outs stand apart in the source and are kept apart here. No end group written: not given here.

The half-life is how long it takes for the measured level to halve.

For series [1] the following is noted: minipig, in vivo.
Protocol: (§2) Prior to the IVT injection, a combination of 100 mg Telazol, 50 mg ketamine, and 50 mg xylazine per mL of solution was administered via intramuscular injection at 0.03–0.06 mL/kg. For two animals, dexmedetomidine (0.02 or 0.03 mg/kg) was administered as a supplementary anesthetic via intramuscular injection. Proparacaine was then administered to eye, followed by tropicamide. The area surrounding the eye was swabbed with an ophthalmic Betadine solution.
(§3) For both studies, animals were euthanized at the indicated time points. Eyes were enucleated, snap frozen in liquid nitrogen, and stored frozen until dissection for collection of vitreous, retina, and RPE/choroid for bioanalysis. […] For statistical determination, all values that were below the lower limit of quantification (LLOQ) were considered zero. Pharmacokinetic analysis was performed from the composite concentration versus time data generated for ocular tissue samples through Day 84 using Phoenix WinNonlin (version 8.5.2.4) software.
The conditions of series [2]: human, in vivo; cited from earlier work.
The conditions of series [3]: minipig, in vivo. The source holds these as a separate data set.
Protocol: as §2, §3
The conditions of series [4]: rabbit, in vivo.
Description: (§4) Prior to injection, each eye was moistened with an ophthalmic Betadine solution, which was then washed out of the eyes with sterile saline. Then, 0.5% proparacaine was applied to the ocular surface prior to the injection.
as §3
Series [5] can be described thus: in vivo. Particulars: Göttingen, minipig.
Protocol: as §2, §3
Series [6] can be described thus: in vivo. The note with it: Dutch-belted, rabbit.
Description: as §4, §3
The test system of series [7] is GA lesion growth. The arrangement: method as in PMID 37696275, PMID 37865470. Particulars: patients with geographic atrophy, after one year of treatment, relative to sham; range given for either agent; cited from earlier work.
The test system of series [8] is caspase-8. Put plainly: Caspase-8 activity assay in RPE lysates of CS/HFD apoB100 mice. The class given is in vivo. Particulars: chronic CS/HFD, two IVT injections, p < 0.05. How it is done: (§1) At 8 weeks of age, male and female mice were placed in a smoking chamber for 5 h/day, 5 days/week for 6 months following our published protocol.
After the retina and RPE/choroid were harvested, protein was extracted using RIPA Buffer (Sigma-Aldrich, St Louis, MO, USA) with Proteinase inhibitor and phosphatase inhibitor. Nine eyes per treatment group were used in this assay, and each sample included 75 μg of protein to standardize the amount of tissue with the Luminescent Caspase-Glow 8 assay kit (Promega, Madison, WI, USA) used according to manufacturer’s protocol. […]

Series [9] has as its system IBA1+ inflammatory cells in the retina. In words: IBA1+ cell count in retinal flatmounts of CS/HFD apoB100 mice. In kind it is in vivo. Particulars: chronic CS/HFD, two IVT injections, p < 0.000001. How it is done:
as §1
For retinal and RPE flatmount immunofluorescence confocal microscopy, mice were euthanized and eyes enucleated (7 eyes/treatment group) to be processed for staining for IBA1 (microglia/monocyte marker) and ZO-1 (RPE morphology). The anterior segments were removed, and the retina was carefully separated from the RPE/choroid complex. Tissues were fixed in 2% paraformaldehyde in Tris-buffered saline (TBS) at 4 °C overnight. Retina flatmounts were processed with TBS/1% bovine serum albumin (BSA) and 5% donkey serum overnight at 4 °C. The flatmounts were then incubated with goat polyclonal anti-AIF-1/IBA1 antibody (1:50; Novus biologicals, Centennial, CO, USA) for 48 h at 4 °C, washed, and incubated with donkey anti-goat Cy3 secondary antibody (Abcam, Cambridge, MA, USA) overnight at 4 °C [27]. […] For retinal quadrants, microglia/monocytes/macrophages, defined by IBA1-immunolabeled cell bodies, were counted in five 20 × power fields per flatmount. For RPE/choroid quadrants, each image was used to measure the RPE cell aspect ratio and the average size per cell using ImageJ after setting a threshold as indicated by the software At least 15 cells were measured/experimental group, with n = 5 animals/group, using our previously published protocol.

Series [10] deals with retinal pigment epithelium (RPE). Put plainly: Delayed sodium iodate challenge rabbit model, RPE lesion area by fluorescein angiography. In kind it is in vivo, Dutch-belted rabbit. The note with it: for protection against sodium iodate-induced lesion (lesion size): no statistically significant difference between the two doses. How it is done:
A 20 mg/mL stock solution of sodium iodate (NaIO3, Sigma Aldrich, St. Louis, MO, USA, Cat#54007) was prepared in sterile 0.9% injectable saline (Cytiva, Marlborough, MA, USA, Z1376), aliquoted into single-use vials, and stored at −20 °C until use. On the day of dosing, aliquots were thawed at room temperature and used immediately. For NaIO3 administration, rabbits were weighed and anesthetized with 2–5% isoflurane (Dechra, Norwich, United Kingdom, 17033-094-25) delivered in medical-grade oxygen at a flow rate of 1.0 to 1.5 L/min via chamber until sedated, then moved to facemask for the injection procedure. The left ear was shaved and disinfected with […] prior to intravenous injection. An indwelling catheter was inserted into the marginal ear vein and flushed with sterile 0.9% injectable saline to ensure patency. Sodium iodate was administered intravenously at a dose of 18 mg/kg body weight, followed by a 0.3 mL saline flush. […] Ten animals were used in each treatment group and 6 animals served as the naïve control group.
Fluorescein angiography was performed following topical anesthesia of the rabbit eyes with proparacaine hydrochloride 0.5% (Akorn, 24208-730-06) and pharmacologic dilation with tropicamide (Akorn, 17478-102-12) and phenylephrine (Akorn, 17478-206-12). The rabbits were anesthetized with isoflurane and the ear was prepared as stated above. A 50 µL bolus of 10% sodium fluorescein (Akorn, 59399-001-04) was injected into the marginal ear vein and allowed to circulate for at least 2 min prior to imaging. Fundus images were captured (Spectralis, Heidelberg Engineering) to document and quantify the extent of visible choroidal and RPE degeneration in both eyes. The area of RPE depigmentation was quantified using ImageJ software (version 1.51j8). In certain cases where the damage extended well into the periphery it was not possible to image the entire edge of the affected area, and these cases were labeled “too large to grade” and were excluded from the final analysis.
With a favorable pharmacokinetic profile, we next evaluated the durability of ONL1204 protection. […] The dose of the systemic sodium iodate had been selected based on a titration that identified a level of systemic sodium iodate that led to localized and quantifiable damage to the rabbit RPE. This damage was assessed one day after sodium iodate administration by quantifying the depigmented lesion area, defined as regions of visible choroid (“window defect”) on fluorescein angiography (Figure 3A,B).

Series [11] has the same test system. In words: Chronic CS/HFD apoB100 mouse model of dry AMD, RPE morphology on ZO-1 flatmounts. The class given is in vivo. The note with it: apoB100 mice, 6 months CS/HFD, two IVT injections 6 weeks apart; p < 0.05. From the text: For the mouse study, an equal number of male and female apolipoproteinB100 (apoB100) mice on a C57/S129 background were used. These animals carry a mutation in the editing gene apobec1, resulting in the predominant production of apoB100 in these mice, contrasting to the majority of mice that predominantly produce apoB48 [24]. For all mice strains, the rd8 mutation was bred out. Mice were fed a standard diet until they were put in the smoking chamber and then were fed a high-fat diet (HFD) consisting of 60% fat, 20% protein, and 20% carbohydrate (Research Diets, Inc., New Brunswick, NJ, USA). The study was approved by the Johns Hopkins IACUC. […]
For retinal and RPE flatmount immunofluorescence confocal microscopy, mice were euthanized and eyes enucleated (7 eyes/treatment group) to be processed for staining for IBA1 (microglia/monocyte marker) and ZO-1 (RPE morphology). […] For retinal quadrants, microglia/monocytes/macrophages, defined by IBA1-immunolabeled cell bodies, were counted in five 20 × power fields per flatmount. For RPE/choroid quadrants, each image was used to measure the RPE cell aspect ratio and the average size per cell using ImageJ after setting a threshold as indicated by the software At least 15 cells were measured/experimental group, with n = 5 animals/group, using our previously published protocol.

The mark [12] stands for this setting: 200 ug/eye, Average concentration of ONL1204 in RPE/choroid.
The mark [13] stands for this setting: 200 ug/eye, Average concentration of ONL1204 in retina.
The mark [14] stands for this setting: 300 ug/eye, Average concentration of ONL1204 in RPE/choroid.
The mark [15] stands for this setting: 300 ug/eye, Average concentration of ONL1204 in retina.
Where [16] appears, read: 10 ug/eye, Average concentration of ONL1204 in RPE/choroid.
Setting [17] is: 10 ug/eye, Average concentration of ONL1204 in retina.
Where [18] appears, read: 50 ug/eye, Average concentration of ONL1204 in RPE/choroid.
The mark [19] stands for this setting: 50 ug/eye, Average concentration of ONL1204 in retina.
Where [20] appears, read: 100 ug/eye, Average concentration of ONL1204 in RPE/choroid.
Setting [21] is: 100 ug/eye, Average concentration of ONL1204 in retina.

Consider HHIYLGAVNYIY-NH2 [ONL1204], for which the stability in plasma entry was “rapidly broken down by peptidases”. In series [1], the “half-life calculated from the vitreous humor data” value is 117.18 days. The “safety in Phase 1 clinical trial” value in series [2] is on record as “safe”. For the same substance, the half-life in series [3] (half-life calculated from the vitreous humor data) was 112 days. Besides, the half-life in [3] (vitreous humor half-life) is greater than 100 days. In addition, the half-life in series [4] (10 ug, calculated vitreous half-life) was 147 days. For the same substance, the half-life in series [4] (50 ug, calculated vitreous half-life) was 116 days. The half-life in series [4] (100 ug, calculated vitreous half-life) is 124 days. The substance also yielded a half-life in series [4] (vitreous humor half-life) greater than 100 days. In series [5] (setting [12]), this substance displayed a tissue level at time at 144 h of 189 ± 160 ng/g, a tissue level at time at 672 h of 66.5 ± 87.8 ng/g and a tissue level at time at 2112 h of 38.2 ± 21.7 ng/g. In series [5] (setting [13]), this substance came in with a tissue level at time at 144 h of 17.8 ± 27.3 ng/g and a tissue level at time at 672 h of 2.05 ng/g. In series [5] (setting [14]), this substance displayed a tissue level at time at 144 h of 101 ± 91.4 ng/g, a tissue level at time at 672 h of 82.4 ± 34.5 ng/g and a tissue level at time at 2112 h of 29.8 ng/g. In series [5] (setting [15]), this substance gave a tissue level at time at 144 h of 7.2 ± 6.37 ng/g and a tissue level at time at 672 h of 23.8 ± 16.4 ng/g. In addition, in series [6] (setting [16]), the tissue level at time at 24 h came out at 5.45 ng/g, the tissue level at time at 672 h was found to be 10.5 ng/g, the tissue level at time at 1344 h amounted to 144 ng/g and the tissue level at time at 1992 h worked out at 213 ± 207 ng/g. Moreover, in series [6] (setting [17]), the tissue level at time at 24 h turned out to be 11.2 ± 8.4 ng/g, the tissue level at time at 672 h was 51 ± 97.9 ng/g and the tissue level at time at 1344 h came out at 14.3 ± 15.1 ng/g. In series [6] (setting [18]), this substance showed a tissue level at time at 24 h of 58 ± 79.8 ng/g, a tissue level at time at 672 h of 92.4 ng/g, a tissue level at time at 1344 h of 61.8 ng/g and a tissue level at time at 1992 h of 209 ± 251 ng/g. Moreover, in [6] (setting [19]), the tissue level at time at 24 h stood at 75.6 ± 144 ng/g, the tissue level at time at 672 h came out at 27 ± 36.6 ng/g, the tissue level at time at 1344 h was determined as 37.8 ± 48.4 ng/g and the tissue level at time at 1992 h came to 201 ± 268 ng/g. In series [6] (setting [20]), the tissue level at time at 24 h stood at 174 ± 149 ng/g, the tissue level at time at 672 h was determined as 40.6 ng/g and the tissue level at time at 1344 h stood at 36.2 ± 41 ng/g. In series [6] (setting [21]), this substance had a tissue level at time at 24 h of 183 ± 346 ng/g, a tissue level at time at 672 h of 42.3 ± 72.1 ng/g, a tissue level at time at 1344 h of 22.7 ± 27.9 ng/g and a tissue level at time at 1992 h of 86.1 ± 103 ng/g.
As to avacincaptad pegol, in [7], the “reduction of the rate of GA lesion growth” value is listed as 14–26%.
With pegcetacoplan, in series [7], the “reduction of the rate of GA lesion growth” value is 14–26%.
On to “HHIYLGAVNYIY-NH2 (C-terminus assumed) [ONL1204]”, for which the “Caspase-8 activity in whole RPE lysates vs vehicle” value in series [8] is “significantly reduced”. Moreover, the “IBA1+ inflammatory cell infiltration in the retina vs vehicle” value in series [9] is on record as “decreased”. Besides, the “protection against sodium iodate-induced lesion (lesion size)” value is on record as “comparable levels of protection” in [10] (single IVT 25 µg on Day 0, sodium iodate 18 mg/kg i.v. on Day 4) and “comparable levels of protection” in series [10] (single IVT 100 µg on Day 0, sodium iodate 18 mg/kg i.v. on Day 4). Besides, the “lesion area vs vehicle-treated controls and 25 µg group” value is reported as “significantly smaller lesion areas” in series [10] (single IVT 100 µg on Day 0, sodium iodate on Day 14) and “significantly smaller lesion areas” in series [10] (single IVT 100 µg on Day 0, sodium iodate on Day 28). Besides, the “posterior RPE cell area vs vehicle” value in series [11] is on record as “significantly lower than the control”.
